In patent publication US20100173918A1, “METHODS AND COMPOSITIONS FOR DETERMINING THE EFFICACY OF BREAST CANCER THERAPEUTICS” (TARGETED MOLECULAR DIAGNOSTICS, LLC, priority 2007, published 2010):
“And” between values parts separate entries of the source, which are not always exact repeats. Equal values may be shown once.

What was measured:
[1] = EGF103009 study of lapatinib monotherapy: safety / adverse events; format: in vivo, human
[2] = system: patients with IBC (inflammatory breast cancer); experiment: EGF103009 open-label study of lapatinib monotherapy: clinical response (skin criteria / RECIST) and progression-free survival; format: in vivo, human; set-up: key to RECIST Response: CR: complete response; PR: partial response; SD: stable disease; conditions: for RECIST Response / Skin Response: individual patient, lapatinib 1,500 mg once daily
Source text: Patients: Eligible adults (18 years of age) had histologically confirmed IBC (Inflammatory breast cancer) and a clinical diagnosis of IBC (e.g., presence of diffuse erythema and edema [peau d'orange], with or without an underlying palpable mass, involving the majority of the skin of the breast). Pathologic evidence of dermal lymphatic invasion was not required. […] EGF103009 was approved by the institutional review board from each participating institution, and written informed consent was obtained from all patients.
Tumor biomarkers were analyzed in a blinded manner at a central Clinical Laboratory Improvement Amendments—certified College of American Pathology reference laboratory (Targeted Molecular Diagnostics, Westmont, Ill.) (Spector N. L., et al., J Clin Oncol 23:2502-2512 (2005)). […] The study design consisted of two stages; two responses were required in the first fifteen patients in either cohort before an additional fifteen patients were enrolled in that cohort (Green-Dahlberg design).
Patients underwent regular physical examinations and evaluations of performance status, body weight, CBC, serum chemistry, left ventricular ejection fraction by multiple gated acquisition scan or echocardiogram, and if applicable, digital photography to evaluate changes in chest wall/[…] disease or assessment by imaging studies, computed tomography scan or magnetic resonance imaging.
Efficacy and Safety Evaluation: Clinical response was assessed at 4-week intervals and imaging performed at 8-week intervals until disease progression or withdrawal from study. […] Toxicity was graded according to the National Cancer Institute Common Terminology Criteria (NC1-CTCAE), version 3.0.
Statistical Analysis: The statistical focus of the study was to test the null hypothesis that the overall response rate (ORR) is no more than 15% versus the alternative hypothesis that this rate is at least 40%. Each cohort consisted of two stages, such that if there were fewer than two responses at the end of stage 1 (15 patients), then the cohort would be closed in favor of the null hypothesis. […] Kaplan-Meier estimates of progression-free survival ([…]) were computed separately for cohort A and B. For this exploratory analysis, there were no statistical comparisons made between cohorts.

[3] = N = 45, >20% decrease in LVEF, asymptomatic and/or below lower limit of normal
[4] = N = 45, mostly musculoskeletal pain (76% of cases)
[5] = N = 45, one report of rash was not graded
[6] = Cohort A (HER-2 overexpressing IBC)
[7] = Cohort B (EGFR expression without HER-2 overexpression)

SMILES: CS(=O)(=O)CCNCc1ccc(-c2ccc3ncnc(Nc4ccc(OCc5cccc(F)c5)c(Cl)c4)c3c2)o1 [lapatinib, Lapatinib ditosylate]
- Anemia, Grade > 3 % ([1]; N = 45): 4%
- Anemia, Grade > 3 No. ([1]; N = 45): 2
- Anemia, Total % ([1]; N = 45): 7%
- Anemia, Total No. of Patients ([1]; N = 45): 3
- Anorexia, Grade > 3 % ([1]; N = 45): 2%
- Anorexia, Grade > 3 No. ([1]; N = 45): 1
- Anorexia, Total % ([1]; N = 45): 22%
- Anorexia, Total No. of Patients ([1]; N = 45): 10
- Constipation, Grade > 3 % ([1]; N = 45): 0%
- Constipation, Grade > 3 No. ([1]; N = 45): 0
- Constipation, Total % ([1]; N = 45): 7%
- Constipation, Total No. of Patients ([1]; N = 45): 3
- Decreased LVEF, Grade > 3 % ([1]; N = 45): 0%
- Decreased LVEF, Grade > 3 No. ([1]; N = 45): 0
- Diarrhea, Grade > 3 % ([1]; N = 45): 11%
- Diarrhea, Grade > 3 No. ([1]; N = 45): 5
- Diarrhea, Total % ([1]; N = 45): 60%
- Diarrhea, Total No. of Patients ([1]; N = 45): 27
- Dyspnea, Grade > 3 % ([1]; N = 45): 11%
- Dyspnea, Grade > 3 No. ([1]; N = 45): 5
- Dyspnea, Total % ([1]; N = 45): 20%
- Dyspnea, Total No. of Patients ([1]; N = 45): 9
- Edema, Grade > 3 % ([1]; N = 45): 2%
- Edema, Grade > 3 No. ([1]; N = 45): 1
- Edema, Total % ([1]; N = 45): 13%
- Edema, Total No. of Patients ([1]; N = 45): 6
- Elevated ALT/AST, Grade > 3 % ([1]; N = 45): 4%
- Elevated ALT/AST, Grade > 3 No. ([1]; N = 45): 2
- Elevated ALT/AST, Total % ([1]; N = 45): 7%
- Elevated ALT/AST, Total No. of Patients ([1]; N = 45): 3
- Elevated alkaline phosphatase, Grade > 3 % ([1]; N = 45): 0%
- Elevated alkaline phosphatase, Grade > 3 No. ([1]; N = 45): 0
- Elevated alkaline phosphatase, Total % ([1]; N = 45): 9%
- Elevated alkaline phosphatase, Total No. of Patients ([1]; N = 45): 4
- Fatigue, Grade > 3 % ([1]; N = 45): 0%
- Fatigue, Grade > 3 No. ([1]; N = 45): 0
- Fatigue, Total % ([1]; N = 45): 24%
- Fatigue, Total No. of Patients ([1]; N = 45): 11
- Hyperbilirubinemia, Grade > 3 % ([1]; N = 45): 2%
- Hyperbilirubinemia, Grade > 3 No. ([1]; N = 45): 1
- Hyperbilirubinemia, Total % ([1]; N = 45): 9%
- Hyperbilirubinemia, Total No. of Patients ([1]; N = 45): 4
- Infection, Grade > 3 % ([1]; N = 45): 4%
- Infection, Grade > 3 No. ([1]; N = 45): 2
- Infection, Total % ([1]; N = 45): 13%
- Infection, Total No. of Patients ([1]; N = 45): 6
- Nausea, Grade > 3 % ([1]; N = 45): 0%
- Nausea, Grade > 3 No. ([1]; N = 45): 0
- Nausea, Total % ([1]; N = 45): 24%
- Nausea, Total No. of Patients ([1]; N = 45): 11
- Pain, Grade > 3 % ([1]; N = 45): 16%
- Pain, Grade > 3 No. ([1]; N = 45): 7
- Pleural effusion, Grade > 3 % ([1]; N = 45): 9%
- Pleural effusion, Grade > 3 No. ([1]; N = 45): 4
- Pleural effusion, Total % ([1]; N = 45): 11%
- Pleural effusion, Total No. of Patients ([1]; N = 45): 5
- Pruritus, Grade > 3 % ([1]; N = 45): 0%
- Pruritus, Grade > 3 No. ([1]; N = 45): 0
- Pruritus, Total % ([1]; N = 45): 11%
- Pruritus, Total No. of Patients ([1]; N = 45): 5
- Rash, Grade > 3 % ([1]; N = 45): 0%
- Rash, Grade > 3 No. ([1]; N = 45): 0
- Vomiting, Grade > 3 % ([1]; N = 45): 0%
- Vomiting, Grade > 3 No. ([1]; N = 45): 0
- Vomiting, Total % ([1]; N = 45): 20%
- Vomiting, Total No. of Patients ([1]; N = 45): 9
- grade ½ diarrhea ([1]; N = 45): 49%
- grade ½ musculoskeletal pain ([1]; N = 45): 42%
- grade ½ skin rash ([1]; N = 45): 36%
- Decreased LVEF, Total % [1, 3]: 7%
- Decreased LVEF, Total No. of Patients [1, 3]: 3
- Pain, Total % [1, 4]: 58%
- Pain, Total No. of Patients [1, 4]: 26
- Rash, Total % [1, 5]: 36%
- Rash, Total No. of Patients [1, 5]: 16
- tolerability of lapatinib monotherapy ([1]; both cohorts): generally well tolerated
- time by which all responses in the skin occurred (first assessment) ([2]; cohort A): ≤ 4 week
- patients with response to lapatinib among those who received prior trastuzumab therapy ([2]; cohort A, 15 patients with prior trastuzumab): six
- patients who experienced response ([2]; cohort A, HER-2+ IBC, n = 30): 15 of 30
- patients whose best clinical response was a CR in chest wall/skin or RECIST-measurable lesions ([2]; cohort A, n = 30): 7%
- patients with a PR in chest wall/skin and/or RECIST-measurable lesions as best response ([2]; cohort A, n = 30): 43%
- patients who responded ([2]; cohort A, tumors coexpressing pHER-2 and pHER-3): nine of 10
- patients who responded ([2]; cohort A, tumors not coexpressing pHER-2 and pHER-3): four of 14
- median PFS ([2]; cohort A, median follow-up 15.3 weeks): 14 weeks
- patients with a clinical response (PR in skin/chest disease) ([2]; cohort B, n = 15): one of 15
- median PFS ([2]; cohort B, median follow-up 4.1 weeks): 4 weeks
- RECIST Response [2, 6]: PR* (4×) and PR (3×) and SD (7×)
- Skin Response [2, 6]: PR (more than 50% decrease in extent of skin disease from baseline documented by digital photography)
- RECIST Response [2, 7]: SD
- Skin Response [2, 7]: PR (more than 50% decrease in extent of skin disease from baseline documented by digital photography)
